Assays:
foci = details: WO03/020977; cited from earlier work
CUG repeats = details: WO03/020977; cited from earlier work
CAG-CTG repeat sequences = details: high doses of caffeine, close to 2 mM; cited from earlier work
[1] = test system: CUG repeat RNA (6-FAM-CUG23); assay: Fluorescence polarization assay with 6-FAM-CUG23 RNA; assay type: binding; details: increasing concentrations, up to twice those of positive control pentamidine
Experimental: This was assessed in fluorescence polarization spectroscopy experiments in which fluorescent CUG RNA probe (carboxyfluorescein (6-FAM)-labeled) was incubated in increasing concentrations of caffeine.
Carboxyfluorescein-labeled CUG RNA (23 CUG repeats; 6-FAM-CUG23) at 6 nM was incubated with caffeine at different concentrations in binding buffer (50 mM Tris-HCl pH 7.0, 250 mM NaCl, 50 μM ZnCl2, 10% glycerol, 1 mM DTT) on ice for 20 min in the dark. Polarization was measured in a EnVision® Multilabel Reader using as excitation filter FP480 and as emission filter FP535.

[2] = test system: human MBNL1 promoter under Drosophila muscleblind ME enhancer (eGFP reporter); assay: eGFP reporter expression in ME:hsaP1-eGFP transgenic flies; assay type: in vivo; details: heterozygous ME:hsaP1-eGFP flies, 25 mg/ml caffeine in food, 8 h, vs sucrose
DM1 model flies = assay: Climbing assay in DM1 model flies; assay type: in vivo, Drosophila; details: 1.72 mM caffeine in nutritive media vs DMSO
Experimental: Groups of ten 5-day-old males were transferred into vials of 1.5 cm in diameter and 25 cm in height, after a period of 24 hours without anesthesia. The height reached from the bottom of the vial by each fly in a period of 10 s was recorded with a camera. For each genotype, approximately 30 flies were tested. […] We used a t-test to assess the statistical difference between the two groups of flies, fed with or without compound.

[3] = test system: MBNL1 expression in human DM1 myoblasts; assay: Immunodetection of MBNL1 in DM1 myoblasts; assay type: cell-based
Experimental: Fibroblasts were transdifferentiated in myoblasts by inducing expression of MyoD. Cells were plated in muscle differentiation medium (MDM) made of DMEM 4.5 g/L glucose with 1% P/S, 2% horse serum, 1% apo-transferrin (10 mg/ml), 0.1% insulin (10 mg/ml) and 0.02% doxycyclin (10 mg/ml) for 48 h. For compound testing fibroblasts were aliquoted in 24-well plate with 3.5×10^4 cells per well and were differentiated as before. […] Cells were then incubated with ABC solution (ABC kit, VECTASTAIN) for 30 min at room temperature, followed by PBT washes and incubation with streptavidin-FITC (1:1000) for 20 min.

[4] = test system: ribonuclear foci in DM1 fibroblasts; assay: Ribonuclear foci detection by in situ hybridization in DM1 fibroblasts; details: caffeine in culture media, vs DMSO
Experimental: Cell model of the disease (provided by the D. Furling's laboratory, Institute of Myologie, Paris) consisted of normal and DM1 (1300 CTG repeats) immortalized (hTERT) skin fibroblasts expressing conditional MyoD. […] Fibroblasts were transdifferentiated in myoblasts by inducing expression of MyoD. Cells were plated in muscle differentiation medium (MDM) made of DMEM 4.5 g/L glucose with 1% P/S, 2% horse serum, 1% apo-transferrin (10 mg/ml), 0.1% insulin (10 mg/ml) and 0.02% doxycyclin (10 mg/ml) for 48 h. For compound testing fibroblasts were aliquoted in 24-well plate with 3.5×10^4 cells per well and were differentiated as before.

normal fibroblasts = assay: MTS cell viability of normal fibroblasts exposed to caffeine; assay type: cell-based, human; details: highest concentration (500 μM), 24 h, relative to cells not exposed to caffeine
Experimental: Cells were aliquoted in 96-well plate with 1.0×10^4 cells per well and incubated for 24 h. […] To measure cell viability, MTS tetrazolium salt was added to each well and was incubated for 4 h at 37° C. in a humidified chamber with 5% CO2. The conversion of MTS into soluble formazan (accomplished by dehydrogenase enzymes from metabolically active cells) was measured by absorbance at 490 nm (CellTiter 96® Aqueous Non-Radioactive Cell Profileration Assay, Promega). Data were transformed to percentage of survival relative to cells not exposed to caffeine, which established 100% viability.

sodium channel = details: small studies; cited from earlier work
[5] = test system: DM1 pathology (splicing defects); details: cited from earlier work

## Cn1c(=O)c2c(ncn2C)n(C)c1=O [caffeine]
foci
  number of foci: increases
CUG repeats
  binding to CUG repeats: not able to bind
CAG-CTG repeat sequences
  increase of the rate of expansion: ~63%
[1]
  polarization values of 6-FAM-CUG RNA (binding to CUG repeats): did not increase
[2]
  expression of the eGFP reporter, normalized to total protein: significantly increase
DM1 model flies
  climbing velocity: significantly improved
[3]; 125 and 250 μM caffeine, 48 h, vs DMSO alone
  MBNL1 expression in the cytoplasm and in the cell nucleus: increased
[3]; caffeine-treated vs DMSO-treated cells
  number of MBNL1-containing foci: qualitatively higher
[4]
  mean number of ribonuclear foci per cell: increased
Normal fibroblasts
  percentage of survival of normal fibroblasts (living cells): greater than 50%

## Cc1cccc(C)c1OCC(C)N (stereo not drawn) [Mexiletine, mexiletine]
Sodium channel
  myotonia: reduced

## N=C(N)c1ccc(OCCCCCOc2ccc(C(=N)N)cc2)cc1 [pentamidine]
[5]
  rescue of DM1 pathology: partial rescue

Source: patent publication US20170304309A1, “CAFFEINE FOR THE TREATMENT OF MYOTONIC DYSTROPHY TYPE 1 AND TYPE 2” (UNIVERSITAT DE VALÈNCIA, priority 2014, published 2017)
